Measured values as given in patent publication US20200017496A1 (priority 2017, published 2020).

Tests used:
Assay in all cases: MIC of compounds alone and combined with antibacterials, broth microdilution (CLSI)
Assay type in all cases: cell-based
[1] = tested on: Citrobacter freundii (CFR) isolates
In short: (§1)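 Log-phase bacteria at a final 5·10^5 CFU/mL in cation-adjusted Mueller-Hinton broth were incubated 16-20 h at 35° C in ambient air with compound alone or with an antibacterial. MIC was the lowest concentration preventing visible growth; combination MIC of the antibacterial was read at each compound concentration.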

[2] = tested on: Enterobacter cloacae (ECL) isolates
In short: as §1

[3] = tested on: Salmonella typhimurium (STY) isolates; conditions: STY S3371; AF1 @ 4 μg/mL
In short: as §1

[4] = tested on: Klebsiella pneumoniae (KPN) isolates; conditions: AF1 @ 4 μg/mL
In short: as §1

[5] = tested on: Klebsiella oxytoca (KOX) isolates; conditions: for MIC ATB in combination: AF1 @ 4 μg/mL; for MIC: Klebsiella oxytoca, ATB alone
In short: as §1

C=CC1=C(C(=O)O)N2C(=O)[C@@H](NC(=O)/C(=N\O)c3csc(N)n3)[C@H]2SC1 [CDR, Cefdinir]
32 µg/mL: MIC ATB in combination ([2]; ECL 260253, AF1 @ 4 μg/mL) | MIC ATB in combination ([2]; ECL NEM146383, AF1 @ 4 μg/mL) | MIC ATB in combination ([2]; ECL UFR14, AF1 @ 4 μg/mL) | MIC ATB in combination ([2]; strain ECL UFR198, antibacterial combined with AF1 @ 4 μg/mL) | MIC ATB in combination ([4]; KPN UFR227O)
16 µg/mL: MIC ATB in combination ([2]; ECL P99, AF1 @ 4 μg/mL) | MIC ATB in combination ([2]; ECL UFR13, AF1 @ 4 μg/mL) | MIC ATB in combination ([2]; strain ECL UFR196, antibacterial combined with AF1 @ 4 μg/mL) | MIC ATB in combination ([4]; KPN 140513) | MIC ATB in combination ([4]; KPN 260252) | MIC ATB in combination ([4]; KPN UFR67) | MIC ATB in combination ([4]; KPN UFR79) | MIC ATB in combination ([4]; KPN UFR81) | MIC ATB in combination ([4]; KPN UFR222)
0.5 µg/mL: MIC ATB in combination ([1]; CFR UFR146, AF1 @ 4 μg/mL) | MIC ATB in combination ([1]; CFR UFR248, AF1 @ 4 μg/mL) | MIC ATB in combination ([4]; KPN 110376) | MIC ATB in combination ([4]; KPN 260251) | MIC ATB in combination ([4]; KPN 700603) | MIC ATB in combination ([4]; KPN ARA) | MIC ATB in combination ([4]; KPN BAA-1898) | MIC ATB in combination ([4]; KPN UFR23) | MIC ATB in combination ([4]; KPN UFR215) | MIC ATB in combination ([5]; KOX UFR173)
1 µg/mL: MIC ATB in combination ([4]; KPN 131119) | MIC ATB in combination ([4]; KPN 190128) | MIC ATB in combination ([4]; KPN 190270) | MIC ATB in combination ([4]; KPN 270077) | MIC ATB in combination ([4]; KPN LIB) | MIC ATB in combination ([4]; KPN UFR22_O) | MIC ATB in combination ([4]; KPN UFR28) | MIC ATB in combination ([4]; KPN UFR80)
8 µg/mL: MIC ATB in combination ([2]; ECL UFR60, AF1 @ 4 μg/mL) | MIC ATB in combination ([2]; ECL UFR85, AF1 @ 4 μg/mL) | MIC ATB in combination ([2]; strain ECL UFR197, antibacterial combined with AF1 @ 4 μg/mL) | MIC ATB in combination ([4]; KPN UFR27) | MIC ATB in combination ([4]; KPN UFR77) | MIC ATB in combination ([5]; KOX UFR21)
128 µg/mL: MIC ATB in combination ([1]; CFR UFR11, AF1 @ 4 μg/mL) | MIC ATB in combination ([4]; KPN UFR78)
<=0.25 μg/mL: MIC ATB in combination ([1]; CFR UFR10, AF1 @ 4 μg/mL) | MIC ATB in combination ([1]; CFR UFR249, AF1 @ 4 μg/mL) | MIC ATB in combination ([1]; CFR UFR250, AF1 @ 4 μg/mL) | MIC ATB in combination ([1]; strain CFR UFR253, antibacterial combined with AF1 @ 4 μg/mL) | MIC ATB in combination ([1]; strain CFR UFR254, antibacterial combined with AF1 @ 4 μg/mL) | MIC ATB in combination ([2]; ECL 190408, AF1 @ 4 μg/mL) | MIC ATB in combination [3] | MIC ATB in combination ([4]; KPN 6299) | MIC ATB in combination ([4]; KPN 160143) | MIC ATB in combination ([4]; KPN 190425) | MIC ATB in combination ([4]; KPN 190551) | MIC ATB in combination ([4]; KPN 200047) | MIC ATB in combination ([4]; KPN 200327) | MIC ATB in combination ([4]; KPN 260376) | MIC ATB in combination ([4]; KPN UFR25) | MIC ATB in combination ([4]; KPN UFR216) | MIC ATB in combination ([4]; KPN UFR217) | MIC ATB in combination ([4]; KPN UFR219) | MIC ATB in combination ([5]; KOX UFR223) | MIC ATB in combination ([5]; KOX UFR224)
64 µg/mL: MIC ATB in combination ([2]; ECL 190310, AF1 @ 4 μg/mL) | MIC ATB in combination ([2]; ECL 200138, AF1 @ 4 μg/mL) | MIC ATB in combination ([2]; ECL 260323, AF1 @ 4 μg/mL) | MIC ATB in combination ([2]; ECL UFR84, AF1 @ 4 μg/mL)
>128 µg/mL: MIC ATB in combination ([1]; CFR UFR83, AF1 @ 4 μg/mL) | MIC ATB in combination ([4]; KPN UFR76)
2 µg/mL: MIC ATB in combination ([2]; ECL 260508, AF1 @ 4 μg/mL) | MIC ATB in combination ([2]; ECL UFR194, AF1 @ 4 μg/mL) | MIC ATB in combination ([2]; ECL UFR200, AF1 @ 4 μg/mL) | MIC ATB in combination ([4]; KPN UFR65) | MIC ATB in combination ([4]; KPN UFR66) | MIC ATB in combination ([4]; KPN UFR68) | MIC ATB in combination ([4]; KPN UFR220) | MIC ATB in combination ([4]; KPN UFR221)
4 µg/mL: MIC ATB in combination ([2]; ECL 200322, AF1 @ 4 μg/mL) | MIC ATB in combination ([2]; ECL UFR12, AF1 @ 4 μg/mL) | MIC ATB in combination ([2]; ECL UFR70, AF1 @ 4 μg/mL) | MIC ATB in combination ([2]; strain ECL UFR195, antibacterial combined with AF1 @ 4 μg/mL) | MIC ATB in combination ([4]; KPN UFR24)
> 256 µg/mL: MIC ([5]; strain KOX UFR21 (TEM-1, CTX-M-15, OXA-48)) | MIC ([5]; strain KOX UFR223 (SHV-11, OXA-48)) | MIC ([5]; strain KOX UFR224 (CTX-M-15, OXA-48))
